This note sets out measurements from US20190284192A1, “NITROGENOUS MACROCYCLIC COMPOUND, PREPARATION METHOD THEREFOR, PHARMACEUTICAL COMPOSITION AND APPLICATION THEREOF” (LUOXIN PHARMACEUTICAL (SHANGHAI) CO., LTD., priority 2016, published 2019).

Read-outs that look alike come from different tables or passages of the source.

In one series the test system is MV-4-11 cells. In words: Inhibitory effect on MV-4-11 cells (CellTiter-Glo). In kind it is cell-based. The note with it: Homo sapiens, MV4-11; 72 hours, CellTiter-Glo; read-out: MV-4-11.
In the next series the target is T1, BRD4 (BD1) (Homo sapiens, UniProt O60885).
T1 construct: Each member comprises two tandem bromodomains (BD1 and BD2) for recognizing the acetylated lysine residues
In words: BRD4 (BD1) bromodomain binding, HTRF. The settings on record: 2 h incubation at r.t.

The nature of series [1]: Metabolic stability in human liver microsomes. In kind it is in vitro ADME. The note with it: human liver microsomes 0.5 mg/mL, NADPH, 37° C.; for CLint scaled at 1 µM: pH 7.4, read-out: HLM_CLint. The procedure: (§1) Determinations of the metabolic stability of the compound from the above embodiments, the detailed operation steps are as followed:
(§2) 1. Preparation of buffer C:
(§3) Buffer A: 1.0 L of 0.1 M potassium dihydrogen phosphate buffer (containing 1.0 mM EDTA);
(§4) Buffer B: 1.0 L of 0.1 M dipotassium hydrogen phosphate buffer (containing 1.0 mM EDTA);
(§5) Buffer C: 500 mL Buffer B was titrated with Buffer A to pH 7.4.
(§6) 2. 10 mM stock solution preparation:
(§7) 10 mM test compound: A certain amount of the test compound was weighed and dissolved in DMSO.
(§8) 10 mM control: 5.455 mg of ketanserin dissolved in 1 mL DMSO.
(§9) 3. Preparation of the drug solution:
(§10) 500 μM solution: 5 μL of 10 mM stock solution (see step 2) was added into 95 μL ACN;
(§11) 1.5 μM dosing solution (dissolved in liver microsome solution):
(§12) 18.75 μL of 20 mg/mL liver microsomes was added into 479.75 μL of Buffer C, then 1.5 μL of 500 μM solution was added and mixed gently by shaking.
(§13) 4. Preparation of 6 mM NADPH solution:
(§14) 15 mg NADPH was weighted, then added into 3 mL of buffer C to prepare a 6 mM NADPH solution.
(§15) 5. 30 µL of 1.5 μM dosing solution (see step 3) was added into the wells of the 96-well plate set at different time points (0 minutes, 5 minutes, 15 minutes, 30 minutes, 45 minutes), number of dulplicate sample is 2.
(§16) 6. Preparation of a 0 minutes sample: 135 μL ACN (with internal standard) was added to the 0 minutes well, followed by 15 µL of 6 mM NADPH solution.
(§17) 7. The 96-well plate containing 1.5 μM dosing solution and NADPH solution were preheated in a 37° C. water bath for 5 minutes.
(§18) 8. The 15 µL of 6 mM NADPH solution preheated was added into the wells set to 5 minutes, 15 minutes, 30 minutes, 45 minutes, then the reaction was initiated and started counting the time.
(§19) 10. The sample was vortexed for 10 min, and then centrifuged for 15 minutes on a centrifuge (Thermo Multifuge×3R) using 5594×g.
(§20) 11. 50 μL of the supernatant was taken from the centrifuged sample, transferred to a 96-well sample plate to which 100 μL of ultrapure water had already been added, mixed, and finally sent to LC-MS/MS for analysis.
(§21) Half time (T1/2)=0.693/K (K is the rate constant obtained by linear regression of the logarithm of the concentration as vertical coordinates and the culturing time as the abscissa)
(§22) 2. According to the equation formula bellow, Excel was used to plot the compound content versus reaction time, as well as half life calculation (min)
(§23) Y=(Y0−Plateau)×e^(−K*X)+Plateau
(§24) Y0 represents the compound content at 0 minutes; Y represents the compound content; X represents the time point; K represents degration rate constant of the compound; Plateau represents the lowest possible content of the compound (defined herein as 0).

The next series has as its target T2, BRD4 (BD2) (Homo sapiens, UniProt O60885).
T2 construct: Each member comprises two tandem bromodomains (BD1 and BD2) for recognizing the acetylated lysine residues
Put plainly: BRD4 (BD2) bromodomain binding, HTRF. The settings on record: 2 h incubation at r.t.

A short description of series [2]: Cassette pharmacokinetic study, intravenous or oral administration. In kind it is in vivo, female Balb/c nude mice. The settings on record: for F: PO 2 mg/kg vs IV 0.5 mg/kg; for Cmax / AUC(0-inf) / AUC(0-t) / MRT inf / clearance / half-life / Vd / Tmax: N = 3, cassette; for AUC(0-inf) / AUC(0-t) / MRT inf / clearance / half-life / Vd / Tmax: female, Balb/c nude, mouse, whole blood; for half-life: read-out: Terminal t1/2 (converted); for Vd: read-out: Vss. On the set-up: Cmax: unit not given here. The procedure:
Determinations of the pharmacokinetic parameters of ABBV-075 (standard control), 4009, 4018, 4026 and 4031 in femal Balb/c nude mice after intravenous or oral administration.
Detailed Experimental Steps:
6 female Balb/c nude mice weighing 18-20 g were divided into two groups (3/group), after fixation, the intravenous group: 0.5 mg/kg (5 mL/kg) injected by caudal vein (N=3); the oral group: 2 mg/kg (10 mL/kg) by intragastic administration (N=3). Approximately 20 μL of blood was drawn behind the eyeball at the sampling point and placed in EDTA-2K tube. The sample was immediately diluted with 40 μL of double distilled water and vortexed until well mixed. Blood samples were stored at approximately −70° C. and submitted to the BA group for analysis (LC/MS). 30 μL of blood sample was added with 200 μL of H2O and 30 μL of IS dexamethasone, 200 ng/mL), layered by LLE, and 1 mL of MTBW was added as an organic extraction solvent. The mixture was vortexed for 10 min and centrifuged at 10,000 rpm for 5 min. 850 μL of the supernatant was evaporated under nitrogen until desiccated. The desiccated extract was re-mixed with 150 μL of 50% methanol, vortexed for 2 min, and then analyzed by injecting 5 μL of the supernatant into LC-MS/MS.
2. Intravenous/oral administration formula: 5% DMSO, 95% (10% HP-3-CD in water)
3. PK calculation parameter used non-compartment model, WinNonlin 6.4 software calculation

Series [3] in a line: Metabolic stability in mouse liver microsomes. In kind it is in vitro ADME. The settings on record: mouse liver microsomes 0.5 mg/mL, NADPH, 37° C.; for CLint scaled at 1 µM: pH 7.4, read-out: MLM_CLint. The procedure:
as §1, §2, §3, §4, §5, §6, §7, §8, §9, §10, §11, §12, §13, §14, §15, §16, §17, §18, §19, §20, §21, §22, §23, §24

On to `CCS(=O)(=O)Nc1cc2c(cc1Cl)C(c1ccc(F)cc1)=NCc1cc(=O)n(C)cc1-2` [Compound 4031, N-(9-chloro-7-(4-flurophenyl)-2-methyl-3-oxo-3,5-dihydro-2H-benzo[c]pyrido[3,4-e]azepin-10-yl)ethylsulfonamide], for which the IC50 in the series with MV-4-11 cells stood at 3 nM. On BRD4 (BD1), this compound gave an IC50 of 2 nM. The HLM_T1/2 entry in series [1] was “∞”. The compound also returned an IC50 at BRD4 (BD2) of 1 nM. Further, in series [2], the F worked out at 108%. In addition, in series [2] (PO 2 mg/kg), the Cmax is 1009, the AUC(0-inf) is 3330 ng·h/mL, the AUC(0-t) is 3300 ng·h/mL and the Tmax came to 0.5 h. For the same compound, the half-life in series [2] (PO 2 mg/kg) was 3.84 h. In series [2] (IV 0.5 mg/kg), this compound had an AUC(0-inf) of 771 ng·h/mL, an AUC(0-t) of 729 ng·h/mL, an MRT inf of 3.5 h and a clearance of 10.9 mL/min/kg. Further, in series [2] (IV 0.5 mg/kg), the half-life was 2.72 h and the Vd worked out at 2.34 L/kg. Besides, the MLM_T1/2 result in series [3] is “∞”.

Take `CCNC(=O)C[C@@H]1N=C(c2ccc(Cl)cc2)c2ccccc2-c2cn(C)c(=O)cc21` [Compound 4016, (S)-2-(7-(4-chlorophenyl)-2-methyl-3-oxo-3,5-dihydro-2H-benzo[c]pyrido[3,4-e]azepin-5-yl)-N-ethylacetamide]: the IC50 in the series on MV-4-11 cells was determined as 16 nM; at BRD4 (BD1), 3 nM; at BRD4 (BD2), 1 nM. Further, the HLM_T1/2 in series [1] was 34.22 min. Moreover, the CLint scaled at 1 µM in series [1] is 50.8 mL/min/kg; in series [3] it was 255 mL/min/kg. The compound further came in with an MLM_T1/2 in series [3] of 21.37 min.

On to `CCS(=O)(=O)Cc1ccc2c(c1)-c1nn(C)c(=O)cc1C(C)N=C2c1ccc(F)cc1` (stereo not drawn) [Compound 4081, 10-((Ethylsulfonyl)methyl)-7-(4-flurophenyl)-2,5-dimethyl-2,5-dihydro-3H-benzo[c]pyridazino[3,4-e]azepin-3-ketone], for which the IC50 in the series with MV-4-11 cells worked out at 30 nM; at BRD4 (BD1), 6 nM; at BRD4 (BD2) it was 3 nM. Also, the HLM_T1/2 in series [1] is 2952.57 min. The CLint scaled at 1 µM in series [1] came out at 0.59 mL/min/kg. Further, the MLM_T1/2 entry in series [3] was “∞”.

Regarding `CCS(=O)(=O)Nc1ccc2c(c1)-c1cn(C)c(=O)cc1CN=C2c1ccc(F)cc1` [Compound 4018, N-(7-(4-fluorophenyl)-2-methyl-3-oxo-3,5-dihydro-2H-benzo[c]pyrido[3,4-e]azapin-10-yl)ethanesulfonamide], in the series on MV-4-11 cells, the IC50 was found to be 5 nM. On BRD4 (BD1), this compound registered an IC50 of 3 nM. For the same compound, in series [1], the HLM_T1/2 is on record as 1043.26 min and the CLint scaled at 1 µM came out at 1.67 mL/min/kg. On BRD4 (BD2), the IC50 came out at 2 nM. In series [2], this compound showed an F of 12.2%. Besides, in series [2] (PO 2 mg/kg), the Cmax came to 41.9, the AUC(0-inf) turned out to be 98.1 ng·h/mL, the AUC(0-t) was 89.7 ng·h/mL and the Tmax was 0.667 h. Further, in series [2] (PO 2 mg/kg), the half-life is 2.18 h. In series [2] (IV 0.5 mg/kg), this compound showed an AUC(0-inf) of 201 ng·h/mL, an AUC(0-t) of 199 ng·h/mL, a mean residence time MRT inf of 0.59 h and a clearance of 41.8 mL/min/kg. Also, in series [2] (IV 0.5 mg/kg), the half-life is 0.685 h and the Vd was determined as 1.51 L/kg. In series [3], the MLM_T1/2 amounted to 352.12 min and the CLint scaled at 1 µM was determined as 15.5 mL/min/kg.

With `C[C@@H]1N=C(c2ccc(F)cc2)c2ccc(CS(N)(=O)=O)cc2-c2cn(C)c(=O)cc21` [Compound 4071, (S)-(7-(4-flurophenyl)-2,5-dimethyl-3-oxo-3,5-dihydro-2H-benzo[c]pyrido[3,4-e]azepin-10-yl)methane sulfamide], the IC50 was found to be 10 nM in the series on MV-4-11 cells, 2 nM on BRD4 (BD1) and 1 nM on BRD4 (BD2). The HLM_T1/2 entry in series [1] was “∞”. The MLM_T1/2 result in series [3] is on record as “∞”.

Turning to `CNS(=O)(=O)Cc1ccc2c(c1)-c1cn(C)c(=O)cc1[C@H](C)N=C2c1ccc(F)cc1` [Compound 4072, (S)-1-(7-(4-flurophenyl)-2,5-dimethyl-3-oxo-3,5-dihydro-2H-benzo[c]pyrido[3,4-e]azepin-10-yl)-N-methylmethane sulfamide], the IC50 amounted to 6 nM in the series with MV-4-11 cells, 1 nM on BRD4 (BD1) and 1 nM on BRD4 (BD2). In addition, in series [1], the HLM_T1/2 result is reported as “∞”. Besides, the MLM_T1/2 in series [3] stood at 372.45 min. Also, the CLint scaled at 1 µM in series [3] is 14.7 mL/min/kg.

Turning to `CCS(=O)(=O)Cc1ccc2c(c1)-c1cn(C)c(=O)cc1CN=C2c1ccc(F)cc1F` [Compound 4012, 7-(2,4-difluorophenyl)-2-methyl-10-(ethylsulfonemethyl)-2H-benzo[c]pyrido[3,4-e]azepin-3(5H)-ketone], the values for the IC50 in the series on MV-4-11 cells, on BRD4 (BD1) and on BRD4 (BD2) were 80 nM, 4 nM and 2 nM, respectively. The HLM_T1/2 in series [1] is listed as 1473.23 min. Moreover, the CLint scaled at 1 µM in series [1] worked out at 1.18 mL/min/kg; in series [3], 3.48 mL/min/kg. In addition, the MLM_T1/2 in series [3] was 1568.22 min.

Turning to `C[C@@H]1N=C(c2ccc(F)cc2)c2ccc(CS(=O)(=O)N(C)C)cc2-c2cn(C)c(=O)cc21` [Compound 4073, (S)-1-(7-(4-flurophenyl)-2,5-dimethyl-3-oxo-3,5-dihydro-2H-benzo[c]pyrido[3,4-e]azepin-10-yl)-N,N-dimethylmethane sulfamide], the figures for the IC50 with MV-4-11 cells, on BRD4 (BD1) and at BRD4 (BD2) were 2 nM, 1 nM and 1 nM, respectively. Besides, the HLM_T1/2 in series [1] is listed as 139.87 min. In addition, the CLint scaled at 1 µM turned out to be 12.4 mL/min/kg in series [1] and 35 mL/min/kg in series [3]. Moreover, in series [3], the MLM_T1/2 turned out to be 156.12 min.

With `Cn1cc2c(cc1=O)[C@H](CC(N)=O)N=C(c1ccc(Cl)cc1)c1ccccc1-2` [Compound 4017, (S)-2-(7-(4-chlorophenyl)-2-methyl-3-oxo-3,5-dihydro-2H-benzo[c]pyrido[3,4-e]azepin-5-yl)acetamide], the IC50 was determined as 10 nM with MV-4-11 cells, 4 nM at BRD4 (BD1) and 2 nM at BRD4 (BD2). This compound displayed an HLM_T1/2 in series [1] of 854.27 min. Further, the CLint scaled at 1 µM is 2.03 mL/min/kg in series [1] and 25.4 mL/min/kg in series [3]. In series [3], this compound gave an MLM_T1/2 of 215.28 min.
